Measurements: the supplement of paper PMC10307832

Columns and labels:
Experiment in all cases: relative viability (nuclei count vs DMSO), 5 days (fraction); higher = more cells survive
Nelarabine + Alpelisib = compound: COc1nc(N)nc2c1ncn2[C@@H]1O[C@H](CO)[C@@H](O)[C@@H]1O [Nelarabine] + Cc1nc(NC(=O)N2CCC[C@H]2C(N)=O)sc1-c1ccnc(C(C)(C)C(F)(F)F)c1 [Alpelisib] (partner 2 µM)
Outline: (§1)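 For relative viability, nuclei counts in treated wells were divided by those in vehicle wells. Lung cancer cell lines had been pin-tool dosed in 1536-well plates the day after seeding and cultured for 5 days, then fixed and stained in one step (final 0.05% Triton X-100, 1% formaldehyde, 1 ug/ml Hoechst) and imaged at 4×. Doses were one drug alone or a fixed anchor-drug dose plus five library-drug doses (not always all listed) in √10 steps, and values are duplicate-plate medians.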

Adavosertib + Tozasertib = compound: C=CCn1c(=O)c2cnc(Nc3ccc(N4CCN(C)CC4)cc3)nc2n1-c1cccc(C(C)(C)O)n1 [Adavosertib] + Cc1cc(Nc2cc(N3CCN(C)CC3)nc(Sc3ccc(NC(=O)C4CC4)cc3)n2)n[nH]1 [Tozasertib] (partner 0.1 µM)
Outline: as §1

Adavosertib + OSI-027 = compound: C=CCn1c(=O)c2cnc(Nc3ccc(N4CCN(C)CC4)cc3)nc2n1-c1cccc(C(C)(C)O)n1 [Adavosertib] + COc1cccc2cc(-c3nc([C@H]4CC[C@H](C(=O)O)CC4)n4ncnc(N)c34)[nH]c12 [OSI-027] (partner 0.5 µM)
Outline: as §1

Adavosertib + AZD7762 = compound: C=CCn1c(=O)c2cnc(Nc3ccc(N4CCN(C)CC4)cc3)nc2n1-c1cccc(C(C)(C)O)n1 [Adavosertib] + NC(=O)Nc1cc(-c2cccc(F)c2)sc1C(=O)N[C@H]1CCCNC1 [AZD7762] (partner 0.2 µM)
Outline: as §1

Row | Cell Line | relative viability (Nelarabine + Alpelisib; first compound 0.01 µM) | relative viability (Nelarabine + Alpelisib; first compound 0.03162 µM) | relative viability (Nelarabine + Alpelisib; first compound 0.1 µM) | relative viability (Nelarabine + Alpelisib; first compound 0.3162 µM) | relative viability (Nelarabine + Alpelisib; first compound 1 µM) | relative viability (Adavosertib + Tozasertib; first compound 0.01 µM) | relative viability (Adavosertib + Tozasertib; first compound 0.03162 µM) | relative viability (Adavosertib + Tozasertib; first compound 0.1 µM) | relative viability (Adavosertib + Tozasertib; first compound 0.3162 µM) | relative viability (Adavosertib + OSI-027; first compound 0.01 µM) | relative viability (Adavosertib + OSI-027; first compound 0.03162 µM) | relative viability (Adavosertib + OSI-027; first compound 0.1 µM) | relative viability (Adavosertib + OSI-027; first compound 0.3162 µM) | relative viability (Adavosertib + AZD7762; first compound 0.01 µM) | relative viability (Adavosertib + AZD7762; first compound 0.03162 µM) | relative viability (Adavosertib + AZD7762; first compound 0.1 µM) | relative viability (Adavosertib + AZD7762; first compound 0.3162 µM)
1 | SK-MES-1 | 1.01 | 1 | 0.937 | 0.964 | 0.948 | 0.898 | 0.929 | 0.92 | 0.285 | 0.681 | 0.576 | 0.428 | 0.198 | – | – | – | –
2 | NCI-H2170 | 0.944 | 0.748 | 0.81 | 0.882 | 0.937 | 0.675 | 0.683 | 0.688 | 0.735 | 0.703 | 0.786 | 0.632 | 0.597 | 0.919 | 0.838 | 0.725 | 0.266
3 | NCI-H1648 | – | – | – | – | – | 0.545 | 0.613 | 0.386 | 0.545 | 0.273 | 0.293 | 0.248 | 0.251 | 0.549 | 0.532 | 0.533 | 0.414
4 | UMC-11 | 1.1 | 0.597 | 0.909 | 1.02 | 0.96 | 0.19 | 0.201 | 0.196 | 0.181 | 0.48 | 0.442 | 0.432 | 0.444 | – | – | – | –
5 | HCC-15 | 1.09 | 0.822 | 0.847 | 0.983 | 0.934 | 0.385 | 0.409 | 0.481 | 0.444 | 0.669 | 0.786 | 0.756 | 0.802 | 1.1 | 1.28 | 1.57 | 1.14
6 | HCC-78 | 0.349 | 0.336 | – | 0.349 | 0.4 | 0.589 | 0.348 | 0.351 | 0.464 | 0.355 | 0.354 | 0.325 | 0.339 | 0.512 | 0.603 | 0.564 | 0.368
7 | NCI-H647 | 1.2 | 0.705 | 1.12 | 1.56 | 1.19 | 0.273 | 0.276 | 0.245 | 0.317 | 0.635 | 0.609 | 0.569 | 0.26 | 0.351 | 0.358 | 0.167 | 0.0858
8 | NCI-H2009 | 1.25 | 1.32 | 1.15 | 1.2 | 1.14 | 0.787 | 0.749 | 1.05 | 0.749 | 0.698 | 0.644 | 0.651 | 0.366 | – | – | – | –
9 | NCI-H520 | 1.16 | 0.924 | 1.16 | 1.03 | 1.1 | 0.406 | 0.437 | 0.347 | 0.411 | 0.298 | 0.262 | 0.212 | 0.224 | – | – | – | –
10 | RERF-LC-KJ | 0.944 | 0.889 | 0.909 | 0.861 | 1.09 | 0.555 | 0.627 | 0.577 | 0.668 | 0.561 | 0.512 | 0.555 | 0.465 | 0.987 | 1.02 | 1.02 | 0.878
11 | NCI-H441 | 0.974 | 0.675 | 0.704 | 0.921 | 0.986 | 0.688 | 0.685 | 0.801 | 0.636 | 0.758 | 0.56 | 0.471 | 0.425 | 1.12 | 0.989 | 0.658 | 0.355
12 | NCI-H1666 | 0.99 | 0.917 | 0.957 | 1.05 | 0.883 | 0.642 | 0.568 | 0.678 | 0.694 | 0.797 | 0.851 | 0.847 | 0.744 | 0.766 | 0.829 | 0.803 | 0.625
13 | NCI-H1755 | 1.13 | 0.879 | 0.984 | 1.15 | 1.08 | 0.649 | 0.581 | 0.682 | 0.535 | 0.662 | 0.731 | 0.754 | 0.666 | 0.455 | 0.33 | 0.327 | 0.253
14 | COR-L23 | 0.969 | 0.768 | 0.743 | 0.869 | 0.747 | 0.24 | 0.236 | 0.23 | 0.162 | 0.858 | 0.745 | 0.717 | 0.349 | – | – | – | –
15 | SK-LU-1 | 1.36 | 0.608 | 0.87 | 1.22 | 1 | 0.371 | 0.321 | 0.302 | 0.174 | 0.394 | 0.324 | 0.296 | 0.182 | – | – | – | –
16 | SW 900 | – | – | – | – | – | – | 0.533 | 0.62 | 0.538 | – | 0.554 | 0.494 | 0.436 | 0.559 | 0.422 | 0.281 | 0.175
17 | PC-3 [JPC-3] | 1.14 | 0.993 | 1.06 | 1.05 | 0.986 | 0.891 | 0.874 | 0.925 | 0.897 | 0.805 | 0.743 | 0.775 | 0.731 | – | 0.757 | 0.777 | 0.709
18 | EKVX | 0.958 | 0.772 | 0.717 | 1.04 | 0.832 | 0.424 | 0.451 | 0.436 | 0.469 | 0.729 | 0.77 | 0.679 | 0.651 | 0.595 | 0.731 | 0.635 | 0.799
19 | NCI-H322M | 0.926 | 0.792 | 0.677 | 0.772 | 0.836 | 0.481 | 0.453 | 0.436 | 0.342 | 0.621 | 0.547 | 0.451 | 0.312 | 0.472 | 0.427 | 0.387 | 0.337
20 | NCI-H2087 | 1.19 | 1.13 | 0.986 | 0.969 | 1.07 | 0.303 | 0.258 | 0.273 | 0.234 | 0.591 | 0.685 | 0.603 | 0.478 | 1.37 | 1.21 | 1.3 | 1.03
21 | NCI-H2405 | 0.842 | 0.794 | 0.74 | 0.647 | 0.801 | 0.807 | 0.83 | 0.835 | 0.877 | 0.668 | 0.667 | 0.669 | 0.628 | – | 0.663 | 0.331 | 0.276
